Measured values published in patent US7792665B2, “Method for designing a compound based on the three dimensional structure of phosphoinositide dependent protein kinase 1 (PDK1)” (Medical Research Council, priority 2002, dated 2010).
Substitutions are numbered along the chain they refer to. Where a SMILES comes first, the peptide text is derived from it. [ ]: non-standard residue; d: D form. pT = C[C@@H](OP(=O)(O)O)[C@H](N)C(=O)O

Key:
wild type PDK1 = target: T1, wild type PDK1 (Homo sapiens, UniProt O15530); experiment: PDK1 catalytic activity towards T308tide, activation by peptides, wild type PDK1; assay type: biochemical; parameters: made in house; settings: T308tide substrate
T1 sequence (O15530 1-556): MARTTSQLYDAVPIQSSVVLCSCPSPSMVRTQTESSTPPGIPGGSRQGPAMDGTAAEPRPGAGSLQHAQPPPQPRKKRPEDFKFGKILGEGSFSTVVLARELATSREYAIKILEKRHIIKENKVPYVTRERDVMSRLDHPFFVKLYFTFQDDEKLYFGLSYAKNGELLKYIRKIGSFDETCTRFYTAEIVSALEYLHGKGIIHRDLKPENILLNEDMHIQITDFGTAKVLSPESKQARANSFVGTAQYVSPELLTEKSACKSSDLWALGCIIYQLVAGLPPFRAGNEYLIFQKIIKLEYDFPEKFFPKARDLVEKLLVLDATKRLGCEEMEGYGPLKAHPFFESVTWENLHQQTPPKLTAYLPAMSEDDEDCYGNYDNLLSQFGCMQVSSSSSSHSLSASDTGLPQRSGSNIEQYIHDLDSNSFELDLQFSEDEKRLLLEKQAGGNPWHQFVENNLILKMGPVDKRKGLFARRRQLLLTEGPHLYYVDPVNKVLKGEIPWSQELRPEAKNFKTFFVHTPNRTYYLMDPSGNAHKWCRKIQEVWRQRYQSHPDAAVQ
Protocol: C. Activation of the indicated forms of PDK1 by 56K-pHM and S6K-HM. PDK1 activity was measured using the peptide substrate (T308tide) in the presence of the indicated concentrations of 56K-pHM (closed circles) and S6K-HM (open circles) as described in the methods. Assays were performed in triplicate and similar results obtained in 2 separate experiments. The results are the average—SD for a single experiment.
The ability of wild type and mutant PDK1 to phosphorylate the synthetic peptide T308tide ([…] ([Biondi et al., 2000]) (SEQ ID NO:108) was carried out in 30 μl assays containing 100 ng of wild type or mutant PDK1, 50 mM Tris/HCl pH 7.5, 0.1% 13-mercaptoethanol, 10 mM MgCl2, 100 μM [32γ P]ATP (200 cpm/pmol), 0.5 μM microcystin-LR, 1 mM T308tide in the presence or absence of the indicated concentrations of the 56K-pHM peptide ([…](P)YVAPSV) (SEQ ID NO:104) or 56K-HM. peptide ([…]) (SEQ ID NO:105). After incubation for 10 min at 30° C., 25 μl of the resultant mixture was spotted into P81 phosphocellulose paper (2×2 cm) and the papers washed and analysed as described previously for assays of MAP kinase. Control assays were carried out in parallel in which either PDK1, or peptide substrate were omitted; these values were always less than 5% of the activity measured in the presence of these reagents. […]

PDK1[T148A] = target: T2, PDK1[T148A] (Homo sapiens, UniProt O15530, T148A); experiment: Surface plasmon resonance (BiaCore) binding, PDK1[T148A]; parameters: made in house; host or cells: human embryonic kidney 293 cells (pEBG2T vector)
T2 sequence (O15530 1-556 T148A): T1 sequence (O15530 1-556) with T148A
Protocol: Binding and activation of wild type and mutant forms of PDK1 to a phosphopeptide derived from the hydrophobic motif of S6K1. The binding of the wild type (wt) PDK1 and indicated mutants to a phosphopeptide comprising the hydrophobic motif of S6K1 (S6K-pHM: […]*YVAPSV, where T* indicates phospho-threonine, SEQ ID NO:104) was analysed by surface plasmon resonance as described in the Materials and Methods.
A. The sensor chip SA was coated with 12RUs of the biotinylated S6K-pHM peptide and the binding was analysed following injection of 270 nM wild type PDK1, PDK1 [T148A] and PDK1 [K76A]. […] (data not shown).
B. As in A. except that binding was analysed over a range of PDK1 concentrations (2-2150 nM). The response level at the steady state binding is plotted versus the log of the PDK1 concentration. The estimated Kd was obtained by fitting the data to a sigmoid curve using Kaleidagraph software.
Binding was analysed in a BiaCore 3000 system (BiaCore AB, Stevenage, UK). Biotinylated S6K-pHM (Biotin-C12-[…](P)YVAPSV) (SEQ ID NO:104) or the non-phosphorylated form of this peptide S6K-HM was bound to an streptavidin-coated Sensor chip (SA) (12 response units, RU). […] Steady state binding was determined at each concentration. Dissociation of PDK1 from the phospho-peptide was monitored over a 1 min period. […]

CC(C)C[C@H](NC(=O)[C@H](Cc1ccccc1)NC(=O)[C@@H](NC(=O)[C@H](CCC(N)=O)NC(=O)[C@H](CC(N)=O)NC(=O)[C@H](C)NC(=O)[C@H](CO)NC(=O)[C@H](CCC(=O)O)NC(=O)[C@@H](N)CO)C(C)C)C(=O)NCC(=O)N[C@@H](Cc1ccccc1)C(=O)N[C@H](C(=O)N[C@@H](Cc1ccc(O)cc1)C(=O)N[C@H](C(=O)N[C@@H](C)C(=O)N1CCC[C@H]1C(=O)N[C@@H](CO)C(=O)N[C@H](C(=O)O)C(C)C)C(C)C)[C@@H](C)OP(=O)(O)O [S6K-pHM] (H-SESANQVFLGF[pT]YVAPSV-OH; N-terminus and C-terminus assumed)
maximal activation of PDK1 (wild type PDK1): 5 fold
dissociation of PDK1[T148A] from peptide compared with wild type PDK1 or PDK1[K76A] (PDK1[T148A]; BiaCore, 270 nM PDK1): markedly slower
higher affinity of PDK1[T148A] than wild type PDK1 (PDK1[T148A]; relative to wild type PDK1): about 10 fold
